US12697330B2, “Therapeutic methods using vadadustat” (Akebia Therapeutics, Inc., priority 2021, dated 2026)

Test system: hemoglobin (Hb)
Test: Phase 2 study in hemodialysis subjects converting from epoetin alfa, Main Study: efficacy (hemoglobin)
Assay type: in vivo, human
Details: for Change in Hb from Primary Evaluation Period to Secondary Evaluation Period, Mean (SD) / Change in Hb from Primary Evaluation Period to Secondary Evaluation Period, Median / Hb at Primary Evaluation Period (Average of Weeks 10 to 12), Mean (SD) / Hb at Primary Evaluation Period (Average of Weeks 10 to 12), Median / Hb at Secondary Evaluation Period (Average of Weeks 18 to 20), Mean (SD) / Hb at Secondary Evaluation Period (Average of Weeks 18 to 20), Median: completed 12 weeks of treatment
Text: The primary objective was to assess the efficacy and safety of daily dosing of vadadustat compared to epoetin alfa for 12 weeks in hemodialysis subjects. Additional objectives included to assess the efficacy and safety of three times weekly (TIW) dosing of vadadustat in selected hemodialysis subjects who have been successfully managed with daily dosing of vadadustat through Week 12, to evaluate the PK/PD of daily and TIW dosing of vadadustat in hemodialysis subjects compared to epoetin alfa, and to assess the efficacy and safety of several dosing strategies of vadadustat compared to epoetin alfa during a 20-week Treatment Period in hemodialysis subjects.
The Main study population consisted of adult subjects receiving chronic, outpatient in-center hemodialysis three times weekly (TIW), with 2 screening hemoglobin (Hb) values between 8.5 and 11.0 g/dL (inclusive) and on maintenance treatment with epoetin alfa <300 U/kg/week.
Efficacy Endpoints. The primary endpoint was the mean change in Hb between Baseline (average pretreatment Hb) and the primary evaluation period (average Hb from Weeks 10 to 12). Secondary endpoints included proportion of subjects with Hb values within the target range (10.0 to 11.0 g/dL, inclusive) at the primary evaluation period (Weeks 10-12) and for subjects who transitioned to TIW vadadustat dosing, mean change in Hb from primary evaluation period (average Hb from Weeks 10-12) to the secondary period (average Hb from Weeks 18-20). Other secondary endpoints included mean change in Hb from Baseline (average pretreatment Hb) and the secondary evaluation period (average Hb from Weeks 18-20), proportion of subjects with Hb values within the target range (10.0 to 11.0 g/dL, inclusive) at the secondary evaluation period (Weeks 18 to 20), for subjects who transitioned to TIW vadadustat dosing, proportion of subjects with Hb values within the target range (10.0 to 11.0 g/dL, inclusive) at the secondary evaluation period (Weeks 18-20), proportion of subjects with a mean increase in Hb from Baseline to the primary evaluation period ≥0.5 g/dL (average Hb from Weeks 10-12) or with Hb values within the target range (10.0 to 11.0 g/dL, inclusive) at the primary evaluation period (Weeks 10-12), proportion of subject with a mean increase in Hb from Baseline to the secondary evaluation period ≥0.5 g/dL (average Hb from Weeks 18-20) or with Hb values within the target range (10.0 to 11.0 g/dL, inclusive) at the secondary evaluation period (Weeks 18-20), intravenous (IV) iron supplementation, ESA rescue, and RBC transfusion.
Study Design. This was a Phase 2, randomized, open-label study to evaluate vadadustat for the treatment of anemia in hemodialysis subjects converting from epoetin alfa therapy. For all subjects (Main study and ESA hyporesponder parallel study), the study included a Screening Period, a study Treatment Period, and a Safety Follow-Up Period as described below. PK and PD sampling were done throughout the study. The aim was to achieve and maintain Hb levels within the target range of 10.0 to 11.0 g/dL, inclusive, while targeting the middle of the range and minimizing excursions outside the target range.
Randomization. Subjects were randomized to either a vadadustat treatment arm or epoetin alfa treatment arm. Randomization was stratified by mean weekly epoetin alfa dose calculated over a period of 8 weeks prior to SV2: low epoetin alfa dose group (≤90 U/kg/week) or high epoetin alfa dose group (>90 to <300 U/kg/week). In the low epoetin alfa dose group, subjects were randomized in a 3:3:2 ratio to receive either an initial vadadustat daily dose of 450 mg (3 tablets) or 300 mg (2 tablets), or epoetin alfa. In the high epoetin alfa dose group, subjects were randomized in a 3:3:3:2 ratio to receive either an initial vadadustat daily dose of 600 mg (4 tablets), 450 mg (3 tablets) or 300 mg (2 tablets), or epoetin alfa.
Study Treatment Period (Baseline/Day 1 to Week 20). […]

[1] = Vadadustat, subjects did not switch
[2] = Vadadustat, subjects switched from QD to TIW
[3] = whole treatment group, Main Study

O=C(O)CNC(=O)c1ncc(-c2cccc(Cl)c2)cc1O [vadadustat, {[5-(3-chlorophenyl)-3-hydroxypyridine-2-carbonyl]amino}acetic acid]
Mean change from baseline in Hb over time, versus comparator (Randomized population, FIG. 13 and FIG. 14): lower than the epoetin alfa treatment group throughout | Change in Hb from Primary Evaluation Period to Secondary Evaluation Period, Mean (SD) (Vadadustat Total, Overall): −0.064 (1.2236) g/dL | Change in Hb from Primary Evaluation Period to Secondary Evaluation Period, Median (Vadadustat Total, Overall): -0.033 g/dL | Hb at Primary Evaluation Period (Average of Weeks 10 to 12), Mean (SD) (Vadadustat Total, Overall): 9.809 (1.1548) g/dL | Hb at Primary Evaluation Period (Average of Weeks 10 to 12), Median (Vadadustat Total, Overall): 9.900 g/dL | Hb at Secondary Evaluation Period (Average of Weeks 18 to 20), Mean (SD) (Vadadustat Total, Overall): 9.876 (0.8867) g/dL | Hb at Secondary Evaluation Period (Average of Weeks 18 to 20), Median (Vadadustat Total, Overall): 9.800 g/dL | Change in Hb from Primary Evaluation Period to Secondary Evaluation Period, Mean (SD) [1]: 0.039 g/dL | Change in Hb from Primary Evaluation Period to Secondary Evaluation Period, Median [1]: 0.067 g/dL | Hb at Primary Evaluation Period (Average of Weeks 10 to 12), Mean (SD) [1]: 9.694 (1.2248) g/dL | Hb at Primary Evaluation Period (Average of Weeks 10 to 12), Median [1]: 9.483 g/dL | Hb at Secondary Evaluation Period (Average of Weeks 18 to 20), Mean (SD) [1]: 9.854 (0.8378) g/dL | Hb at Secondary Evaluation Period (Average of Weeks 18 to 20), Median [1]: 9.800 g/dL | Change in Hb from Primary Evaluation Period to Secondary Evaluation Period, Mean (SD) (Vadadustat, subjects did not switch, listed as Vadadustat): 0.039 (1.2286) g/dL | Change in Hb from Primary Evaluation Period to Secondary Evaluation Period, Mean (SD) [2]: -0.422 g/dL | Change in Hb from Primary Evaluation Period to Secondary Evaluation Period, Median [2]: -0.350 g/dL | Hb at Primary Evaluation Period (Average of Weeks 10 to 12), Mean (SD) [2]: 10.376 (0.3754) g/dL | Hb at Primary Evaluation Period (Average of Weeks 10 to 12), Median [2]: 10.433 g/dL | Hb at Secondary Evaluation Period (Average of Weeks 18 to 20), Mean (SD) [2]: 9.955 (1.0716) g/dL | Hb at Secondary Evaluation Period (Average of Weeks 18 to 20), Median [2]: 9.900 g/dL | Change in Hb from Primary Evaluation Period to Secondary Evaluation Period, Mean (SD) (Vadadustat, subjects switched from QD to TIW, listed as Vadadustat): −0.422 (1.1708) g/dL | proportion of subjects having Hb values within target range at Weeks 10 to 12 (vadadustat 300 mg group of the high epoetin alfa stratum): 8.3% | course of Hb versus baseline (vadadustat 300 mg, high epoetin alfa stratum): decrease from baseline in Hb up to Week 10, after which Hb began to return towards baseline | mean (SD) Hb at the PEP (Weeks 10 to 12) [3]: 9.78 (1.048) g/dL | mean (SD) changes from baseline in Hb at the PEP [3]: −0.35 (0.976) g/dL | proportion of subjects having Hb values within target range at the PEP (Weeks 10 to 12) [3]: 32.7%
